According to PubChem BioAssay (NCI):
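Tested at 5 concentrations; 48 h exposure; 96-well plates; endpoints linearly interpolated, else capped at highest concentration. GI50 marks 50% less growth. At the TGI there is no net growth.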

What was measured:
Experiment in all cases: NCI tumour cell line growth inhibition, 48 h
MDA-MB-435 = system: MDA-MB-435
SK-OV-3 ovarian = system: SK-OV-3 ovarian
NCI-H522 lung = system: NCI-H522 lung
MDA-MB-468 breast = system: MDA-MB-468 breast
TK-10 renal = system: TK-10 renal
SK-MEL-2 melanoma = system: SK-MEL-2 melanoma
UACC-257 melanoma = system: UACC-257 melanoma
HOP-62 NSCLC = system: HOP-62 NSCLC
CCRF-CEM leukemia = system: CCRF-CEM leukemia
M14 melanoma = system: M14 melanoma
UO-31 renal = system: UO-31 renal
SN12C renal = system: SN12C renal
COLO 205 colon = system: COLO 205 colon
ACHN renal = system: ACHN renal
OVCAR-8 ovarian = system: OVCAR-8 ovarian
SNB-75 CNS = system: SNB-75 CNS
MCF7 breast = system: MCF7 breast
SK-MEL-5 melanoma = system: SK-MEL-5 melanoma
OVCAR-3 ovarian = system: OVCAR-3 ovarian
A498 renal = system: A498 renal
SK-MEL-28 melanoma = system: SK-MEL-28 melanoma
HCC-2998 colon = system: HCC-2998 colon
SF-268 CNS = system: SF-268 CNS
MDA-MB-231 breast = system: MDA-MB-231 breast
RPMI-8226 leukemia = system: RPMI-8226 leukemia
EKVX NSCLC = system: EKVX NSCLC
SF-539 CNS = system: SF-539 CNS
HT29 colon = system: HT29 colon
UACC-62 melanoma = system: UACC-62 melanoma

`CN(C(=O)c1ccc(C(F)(F)F)cc1C(F)(F)F)c1sc2c(c1C#N)CCC(=O)C2` was tested, and the GI50 (MDA-MB-435) was 15.7 µM, the TGI (MDA-MB-435) was 30.5 µM and the GI50 (SK-OV-3 ovarian) was 15.3 µM. For the same compound, the TGI (SK-OV-3 ovarian) was 28.9 µM, the GI50 (NCI-H522 lung) was 1.62 µM and the TGI (NCI-H522 lung) was 3.38 µM. For the same compound, the GI50 (MDA-MB-468 breast) was 2.35 µM, the TGI (MDA-MB-468 breast) was 6.93 µM and the GI50 (TK-10 renal) was 14.6 µM. It also gave a TGI (TK-10 renal) of 28 µM, a GI50 (SK-MEL-2 melanoma) of 14.3 µM and a TGI (SK-MEL-2 melanoma) of 31 µM. It also gave a GI50 (UACC-257 melanoma) of 16.3 µM, a TGI (UACC-257 melanoma) of 32.8 µM and a GI50 (HOP-62 NSCLC) of 16.1 µM. For the same compound, the TGI (HOP-62 NSCLC) was 30.3 µM, the GI50 (CCRF-CEM leukemia) was 2.73 µM and the TGI (CCRF-CEM leukemia) was 14.6 µM. For the same compound, the GI50 (M14 melanoma) was 4.18 µM, the TGI (M14 melanoma) was 19.2 µM and the GI50 (UO-31 renal) was 3.15 µM. For the same compound, the TGI (UO-31 renal) was 13.7 µM, the GI50 (SN12C renal) was 10.5 µM and the TGI (SN12C renal) was 29.6 µM. The GI50 (COLO 205 colon) was 16 µM, the TGI (COLO 205 colon) was 30.5 µM and the GI50 (ACHN renal) was 14.2 µM. For the same compound, the TGI (ACHN renal) was 29.6 µM, the GI50 (OVCAR-8 ovarian) was 4.66 µM and the TGI (OVCAR-8 ovarian) was 19 µM. It also gave a GI50 (SNB-75 CNS) of 5.25 µM, a TGI (SNB-75 CNS) of 20.7 µM and a GI50 (MCF7 breast) of 14.6 µM. It also gave a TGI (MCF7 breast) of 31 µM, a GI50 (SK-MEL-5 melanoma) of 8.15 µM and a TGI (SK-MEL-5 melanoma) of 21.1 µM. The GI50 (OVCAR-3 ovarian) was 2.4 µM, the TGI (OVCAR-3 ovarian) was 6.1 µM and the GI50 (A498 renal) was 16.9 µM. The TGI (A498 renal) was 30.9 µM, the GI50 (SK-MEL-28 melanoma) was 21.4 µM and the TGI (SK-MEL-28 melanoma) was 43.8 µM. It also gave a GI50 (HCC-2998 colon) of 15.1 µM, a TGI (HCC-2998 colon) of 29.5 µM and a GI50 (SF-268 CNS) of 12.1 µM. The TGI (SF-268 CNS) was 32.8 µM, the GI50 (MDA-MB-231 breast) was 13.1 µM and the TGI (MDA-MB-231 breast) was 35 µM. For the same compound, the GI50 (RPMI-8226 leukemia) was 2.82 µM, the TGI (RPMI-8226 leukemia) was 13.3 µM and the GI50 (EKVX NSCLC) was 14.2 µM. It also gave a TGI (EKVX NSCLC) of 30.8 µM, a GI50 (SF-539 CNS) of 2.34 µM and a TGI (SF-539 CNS) of 5.04 µM. For the same compound, the GI50 (HT29 colon) was 17.6 µM, the TGI (HT29 colon) was 34.4 µM and the GI50 (UACC-62 melanoma) was 4.48 µM. The TGI (UACC-62 melanoma) was 17 µM.
